Test results taken from ChEMBL document CHEMBL3886771, “Cyclopropanecarboxamido-substitute aromatic compounds as anti-tumor agents” (2016).

Molecular target: Vascular endothelial growth factor receptor 2 (Homo sapiens, UniProt P35968)
Experiment: Inhibition Assay: [Experimental method]: Use Lance@Ultra Ulight™-TK assay kit from PerKinElmer to evaluate the inhibitory activity of compounds at KDR kinase. [Instrument]: PerKinElmer's ENVISION plate reader. [Materials]: Optiplate-384 well plate (PerKinElmer), kinase buffer (50 mM Hepes pH7.5, 0.25 mM EGTA, 2 mM DTT, 0.01% Tween 20, 10 mM Mg2+, 0.5 mM Mn2+), KDR kinase (790-1356 AA, Crown Bioscience), KDR kinase substrate (PerKinElmer catalogue # TRF0127-M), Lance@Eu-W1024-anti-phosphotyrosine (PT66) (PerKinElmer, catalogue #AD0068), ATP (Invitrogen), DMSO (Sigma, catalogue #34869), purified water (Millipore, type: Milli-Q). [Study conditions]: Mix KDR (final concentration: 20 nM) and compound (final DMSO: 0.5%), pre-incubate for 20 min at 30° C.; then add ATP (final concentration: 90 μM) and the substrate (final concentration 50 μM). React for 2 hrs at 30° C. After the reaction, add antibody and reaction for 60 min at 30° C. Read the plate (615 nm, 665 nm), calculate the ratio of the value at 665 nm vs 615 nm and analyze the data.

Chain of Vascular endothelial growth factor receptor 2 (P35968 whole entry, the tested form may be a part): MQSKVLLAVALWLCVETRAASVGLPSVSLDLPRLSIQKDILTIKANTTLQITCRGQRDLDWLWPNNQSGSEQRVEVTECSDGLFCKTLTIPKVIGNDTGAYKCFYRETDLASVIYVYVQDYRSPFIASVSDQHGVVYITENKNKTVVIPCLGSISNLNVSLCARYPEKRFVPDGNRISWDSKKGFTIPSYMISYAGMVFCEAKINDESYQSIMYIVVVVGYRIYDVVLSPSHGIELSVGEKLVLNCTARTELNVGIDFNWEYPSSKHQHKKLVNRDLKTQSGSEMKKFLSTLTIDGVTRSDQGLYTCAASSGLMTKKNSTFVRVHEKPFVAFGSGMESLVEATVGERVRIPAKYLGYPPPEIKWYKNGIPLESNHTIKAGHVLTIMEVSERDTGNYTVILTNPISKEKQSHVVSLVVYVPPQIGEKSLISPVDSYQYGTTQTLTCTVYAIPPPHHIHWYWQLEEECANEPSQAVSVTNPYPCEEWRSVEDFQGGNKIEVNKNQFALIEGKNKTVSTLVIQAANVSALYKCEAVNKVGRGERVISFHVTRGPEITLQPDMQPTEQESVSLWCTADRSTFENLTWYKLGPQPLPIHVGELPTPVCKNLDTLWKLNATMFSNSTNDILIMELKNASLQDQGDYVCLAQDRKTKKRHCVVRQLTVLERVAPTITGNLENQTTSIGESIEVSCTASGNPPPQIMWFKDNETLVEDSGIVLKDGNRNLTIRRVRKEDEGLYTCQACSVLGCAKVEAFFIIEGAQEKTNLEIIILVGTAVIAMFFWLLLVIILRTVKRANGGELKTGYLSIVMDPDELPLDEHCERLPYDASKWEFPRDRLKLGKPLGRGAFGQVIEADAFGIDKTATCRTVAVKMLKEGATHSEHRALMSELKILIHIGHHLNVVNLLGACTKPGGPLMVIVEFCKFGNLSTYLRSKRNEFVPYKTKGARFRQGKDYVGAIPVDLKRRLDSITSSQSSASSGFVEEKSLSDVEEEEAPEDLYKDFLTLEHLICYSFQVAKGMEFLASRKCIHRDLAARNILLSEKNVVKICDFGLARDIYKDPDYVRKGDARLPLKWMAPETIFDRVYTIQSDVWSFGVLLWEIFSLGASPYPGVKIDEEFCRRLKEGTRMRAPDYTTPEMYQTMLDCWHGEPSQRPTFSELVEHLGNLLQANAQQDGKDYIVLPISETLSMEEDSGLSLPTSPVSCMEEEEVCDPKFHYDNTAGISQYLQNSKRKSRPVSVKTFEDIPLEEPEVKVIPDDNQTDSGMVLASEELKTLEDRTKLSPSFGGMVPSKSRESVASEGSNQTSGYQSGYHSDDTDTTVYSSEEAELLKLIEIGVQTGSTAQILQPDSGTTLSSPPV

| SMILES | IC50 [nM] |
| --- | --- |
| O=C(Nc1ccc(Oc2ccnc(NC(=O)C3CC3)c2)c(F)c1)Nc1ccc(Cl)c(C(F)(F)F)c1 | 11.5 |
| CC(c1cc(NC(=O)Nc2ccc(Oc3ccnc(NC(=O)C4CC4)c3)c(F)c2)cc(C(F)(F)F)c1)N1CCNCC1 (configuration not stated) | 26.6 |
